In brackets after ≈: the same amount, converted by molar mass. Read-outs that look alike come from different tables or passages of the source.
Tests used:
fungal (fACC2) = fungal (fACC2) (UniProt Q00955); details: read-out: fACC2 (in vitro ACC2 Inhibition Assay, IC50), ADP-Glo, 5 nM ACC2, 20 μM ATP, 20 μM acetyl-CoA
human (hACC2) = human (hACC2) (Homo sapiens, UniProt O00763); assay: In vitro ACC inhibition assay (ADP-Glo), hACC2; format: biochemical; details: 5 nM ACC2, 20 μM ATP, 20 μM acetyl-CoA
Experimental: The detailed procedure is as follows. […] 10 μL ADP glo reagent was added. […] 20 μL kinase detection reagent was added.

C. krusei = assay: Antifungal Activity Assay (broth microtiter MIC), C. krusei; format: cell-based, Candida krusei; details: for MIC: Pichia kudriavzevii, ATCC6258, 48 h
Experimental: (§1) Compounds of the present invention were evaluated in an Antifungal Activity Assay. An exemplary procedure for the assay, which measures the susceptibility of various Candida species to antifungal compounds, follows. Compounds to be tested (including fluconazole and amphotericin B) were dissolved in DMSO to obtain a solution having a concentration of 1 mg/mL. These stock solutions were sterile filtered using a 0.22 um nylon syringe filter, then diluted in sterile water to achieve a final concentration of 128 μg/mL.
(§2) All species were grown from frozen stock by directly plating on to freshly prepared Sabouraud Dextrose agar (BD, Difco) and incubated overnight in ambient air at 35° C. for 24 h. A direct suspension was prepared in RPMI 1640+MOPS (Lonza, Biowhittaker) by taking individual colonies from the overnight cultures using sterile swabs soaked in sterile saline. The concentration of the suspension was determined using pre-determined standard curves. These suspensions were then diluted down to 5×10^3 CFU/mL to achieve a final concentration of 2.5×10^3 CFU/mL once added to the microtiter plate as per CLSI guidelines (M27-A3, Vol. 28 No. 14).
(§3) Broth microtiter MIC challenge plates were prepared following CLSI guidelines (M27-A3, Vol. 28 No. 14). The original CLSI guidelines focused on reading Candida MICs after 48 h of incubation. As reading after only 24 h offers a clear advantage of patient care, QC limits are being established for all drugs at 24 h. That being said there are no known interpretive breakpoints for amphotericin B at 24 h and the current fluconazole interpretive breakpoints are based on a 48 h reading. The MICs for the test compounds were recorded at 48 h. All MIC determinations were achieved by visually comparing the growth found in the antibiotic challenged wells to that of the growth control.

C. albicans = assay: Antifungal Activity Assay (broth microtiter MIC), C. albicans; format: cell-based, Candida albicans; details: for MIC: Candida albicans, ATCC90028, 48 h
Experimental: as §1, §2, §3

C. parapsilosis = assay: Antifungal Activity Assay (broth microtiter MIC), C. parapsilosis; format: cell-based, Candida parapsilosis; details: for MIC: Lodderomyces parapsilosis, ATCC22019, 48 h
Experimental: as §1, §2, §3

[1] = Table 3a, ATCC 6258, 3 replicates, MIC recorded at 48 h, read-out: MIC, C. krusei ATCC 6258
[2] = Table 3b (additional results), ATCC 6258, 3 replicates, MIC recorded at 48 h, read-out: MIC, C. krusei ATCC 6258
[3] = Table 3a, ATCC 90028, 3 replicates, MIC recorded at 48 h, read-out: MIC, C. albicans ATCC 90028
[4] = Table 3b (additional results), ATCC 90028, 3 replicates, MIC recorded at 48 h, read-out: MIC, C. albicans ATCC 90028
[5] = Table 3a, ATCC 22019, 3 replicates, MIC recorded at 48 h, read-out: MIC, C. parapsilosis ATCC 22019
[6] = Table 3b (additional results), ATCC 22019, 3 replicates, MIC recorded at 48 h, read-out: MIC, C. parapsilosis ATCC 22019
[7] = Table 3a, 3 replicates, MIC recorded at 48 h
[8] = Table 3b (additional results), 3 replicates, MIC recorded at 48 h

fungal (fACC2), sequence (Q00955 whole entry): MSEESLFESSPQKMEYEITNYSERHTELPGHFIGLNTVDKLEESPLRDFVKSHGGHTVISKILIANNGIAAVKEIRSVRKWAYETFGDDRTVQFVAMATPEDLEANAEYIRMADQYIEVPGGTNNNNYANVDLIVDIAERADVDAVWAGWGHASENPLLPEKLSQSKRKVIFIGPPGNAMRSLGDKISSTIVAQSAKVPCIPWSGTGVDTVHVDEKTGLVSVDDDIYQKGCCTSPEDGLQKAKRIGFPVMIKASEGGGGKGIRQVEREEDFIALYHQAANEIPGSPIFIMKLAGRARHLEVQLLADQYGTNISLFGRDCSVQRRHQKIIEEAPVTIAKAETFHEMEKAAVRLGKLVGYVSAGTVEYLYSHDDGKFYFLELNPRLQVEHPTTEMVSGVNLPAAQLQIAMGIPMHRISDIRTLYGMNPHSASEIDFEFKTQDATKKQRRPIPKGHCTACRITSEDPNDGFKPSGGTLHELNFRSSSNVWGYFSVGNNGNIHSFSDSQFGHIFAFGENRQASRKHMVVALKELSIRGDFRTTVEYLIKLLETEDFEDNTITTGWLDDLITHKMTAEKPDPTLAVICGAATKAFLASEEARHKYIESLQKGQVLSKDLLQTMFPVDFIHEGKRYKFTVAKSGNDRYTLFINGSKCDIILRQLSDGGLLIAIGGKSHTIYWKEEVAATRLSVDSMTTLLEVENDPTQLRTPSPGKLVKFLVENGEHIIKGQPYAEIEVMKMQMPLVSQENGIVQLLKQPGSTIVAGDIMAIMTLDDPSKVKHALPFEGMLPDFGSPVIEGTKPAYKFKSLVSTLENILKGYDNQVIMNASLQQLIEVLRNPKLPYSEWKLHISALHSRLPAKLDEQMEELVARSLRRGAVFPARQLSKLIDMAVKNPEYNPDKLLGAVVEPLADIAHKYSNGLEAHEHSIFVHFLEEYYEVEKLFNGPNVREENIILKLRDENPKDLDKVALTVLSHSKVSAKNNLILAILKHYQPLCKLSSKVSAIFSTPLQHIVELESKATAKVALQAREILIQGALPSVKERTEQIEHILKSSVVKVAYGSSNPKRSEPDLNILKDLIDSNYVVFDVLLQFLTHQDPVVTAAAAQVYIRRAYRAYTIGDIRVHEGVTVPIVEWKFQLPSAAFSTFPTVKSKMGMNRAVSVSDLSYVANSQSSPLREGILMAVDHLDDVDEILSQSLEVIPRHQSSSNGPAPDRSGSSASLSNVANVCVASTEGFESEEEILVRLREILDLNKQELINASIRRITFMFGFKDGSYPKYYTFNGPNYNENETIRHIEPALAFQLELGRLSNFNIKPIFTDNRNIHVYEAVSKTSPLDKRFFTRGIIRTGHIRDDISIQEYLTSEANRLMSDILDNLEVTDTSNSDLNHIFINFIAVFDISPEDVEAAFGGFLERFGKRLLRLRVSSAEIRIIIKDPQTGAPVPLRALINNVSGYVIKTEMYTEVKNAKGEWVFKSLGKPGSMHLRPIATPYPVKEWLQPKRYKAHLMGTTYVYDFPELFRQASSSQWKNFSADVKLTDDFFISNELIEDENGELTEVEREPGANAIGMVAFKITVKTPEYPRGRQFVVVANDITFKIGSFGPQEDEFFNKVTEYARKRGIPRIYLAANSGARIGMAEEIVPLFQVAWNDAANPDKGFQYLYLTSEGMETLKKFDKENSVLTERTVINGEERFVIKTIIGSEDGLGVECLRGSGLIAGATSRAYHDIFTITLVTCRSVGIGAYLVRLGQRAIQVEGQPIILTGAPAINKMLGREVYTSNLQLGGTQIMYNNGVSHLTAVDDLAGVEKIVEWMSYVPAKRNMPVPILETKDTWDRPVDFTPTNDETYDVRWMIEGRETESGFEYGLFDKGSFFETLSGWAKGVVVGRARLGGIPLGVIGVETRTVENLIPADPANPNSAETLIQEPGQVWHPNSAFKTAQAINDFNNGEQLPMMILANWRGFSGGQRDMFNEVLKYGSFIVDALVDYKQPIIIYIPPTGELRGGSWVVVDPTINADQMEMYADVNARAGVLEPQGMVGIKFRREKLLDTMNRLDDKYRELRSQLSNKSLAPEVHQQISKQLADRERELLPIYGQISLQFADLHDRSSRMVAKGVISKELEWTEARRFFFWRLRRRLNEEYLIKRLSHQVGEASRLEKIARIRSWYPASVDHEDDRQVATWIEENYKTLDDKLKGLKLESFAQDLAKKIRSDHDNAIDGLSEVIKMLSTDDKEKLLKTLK
human (hACC2), sequence (O00763 whole entry): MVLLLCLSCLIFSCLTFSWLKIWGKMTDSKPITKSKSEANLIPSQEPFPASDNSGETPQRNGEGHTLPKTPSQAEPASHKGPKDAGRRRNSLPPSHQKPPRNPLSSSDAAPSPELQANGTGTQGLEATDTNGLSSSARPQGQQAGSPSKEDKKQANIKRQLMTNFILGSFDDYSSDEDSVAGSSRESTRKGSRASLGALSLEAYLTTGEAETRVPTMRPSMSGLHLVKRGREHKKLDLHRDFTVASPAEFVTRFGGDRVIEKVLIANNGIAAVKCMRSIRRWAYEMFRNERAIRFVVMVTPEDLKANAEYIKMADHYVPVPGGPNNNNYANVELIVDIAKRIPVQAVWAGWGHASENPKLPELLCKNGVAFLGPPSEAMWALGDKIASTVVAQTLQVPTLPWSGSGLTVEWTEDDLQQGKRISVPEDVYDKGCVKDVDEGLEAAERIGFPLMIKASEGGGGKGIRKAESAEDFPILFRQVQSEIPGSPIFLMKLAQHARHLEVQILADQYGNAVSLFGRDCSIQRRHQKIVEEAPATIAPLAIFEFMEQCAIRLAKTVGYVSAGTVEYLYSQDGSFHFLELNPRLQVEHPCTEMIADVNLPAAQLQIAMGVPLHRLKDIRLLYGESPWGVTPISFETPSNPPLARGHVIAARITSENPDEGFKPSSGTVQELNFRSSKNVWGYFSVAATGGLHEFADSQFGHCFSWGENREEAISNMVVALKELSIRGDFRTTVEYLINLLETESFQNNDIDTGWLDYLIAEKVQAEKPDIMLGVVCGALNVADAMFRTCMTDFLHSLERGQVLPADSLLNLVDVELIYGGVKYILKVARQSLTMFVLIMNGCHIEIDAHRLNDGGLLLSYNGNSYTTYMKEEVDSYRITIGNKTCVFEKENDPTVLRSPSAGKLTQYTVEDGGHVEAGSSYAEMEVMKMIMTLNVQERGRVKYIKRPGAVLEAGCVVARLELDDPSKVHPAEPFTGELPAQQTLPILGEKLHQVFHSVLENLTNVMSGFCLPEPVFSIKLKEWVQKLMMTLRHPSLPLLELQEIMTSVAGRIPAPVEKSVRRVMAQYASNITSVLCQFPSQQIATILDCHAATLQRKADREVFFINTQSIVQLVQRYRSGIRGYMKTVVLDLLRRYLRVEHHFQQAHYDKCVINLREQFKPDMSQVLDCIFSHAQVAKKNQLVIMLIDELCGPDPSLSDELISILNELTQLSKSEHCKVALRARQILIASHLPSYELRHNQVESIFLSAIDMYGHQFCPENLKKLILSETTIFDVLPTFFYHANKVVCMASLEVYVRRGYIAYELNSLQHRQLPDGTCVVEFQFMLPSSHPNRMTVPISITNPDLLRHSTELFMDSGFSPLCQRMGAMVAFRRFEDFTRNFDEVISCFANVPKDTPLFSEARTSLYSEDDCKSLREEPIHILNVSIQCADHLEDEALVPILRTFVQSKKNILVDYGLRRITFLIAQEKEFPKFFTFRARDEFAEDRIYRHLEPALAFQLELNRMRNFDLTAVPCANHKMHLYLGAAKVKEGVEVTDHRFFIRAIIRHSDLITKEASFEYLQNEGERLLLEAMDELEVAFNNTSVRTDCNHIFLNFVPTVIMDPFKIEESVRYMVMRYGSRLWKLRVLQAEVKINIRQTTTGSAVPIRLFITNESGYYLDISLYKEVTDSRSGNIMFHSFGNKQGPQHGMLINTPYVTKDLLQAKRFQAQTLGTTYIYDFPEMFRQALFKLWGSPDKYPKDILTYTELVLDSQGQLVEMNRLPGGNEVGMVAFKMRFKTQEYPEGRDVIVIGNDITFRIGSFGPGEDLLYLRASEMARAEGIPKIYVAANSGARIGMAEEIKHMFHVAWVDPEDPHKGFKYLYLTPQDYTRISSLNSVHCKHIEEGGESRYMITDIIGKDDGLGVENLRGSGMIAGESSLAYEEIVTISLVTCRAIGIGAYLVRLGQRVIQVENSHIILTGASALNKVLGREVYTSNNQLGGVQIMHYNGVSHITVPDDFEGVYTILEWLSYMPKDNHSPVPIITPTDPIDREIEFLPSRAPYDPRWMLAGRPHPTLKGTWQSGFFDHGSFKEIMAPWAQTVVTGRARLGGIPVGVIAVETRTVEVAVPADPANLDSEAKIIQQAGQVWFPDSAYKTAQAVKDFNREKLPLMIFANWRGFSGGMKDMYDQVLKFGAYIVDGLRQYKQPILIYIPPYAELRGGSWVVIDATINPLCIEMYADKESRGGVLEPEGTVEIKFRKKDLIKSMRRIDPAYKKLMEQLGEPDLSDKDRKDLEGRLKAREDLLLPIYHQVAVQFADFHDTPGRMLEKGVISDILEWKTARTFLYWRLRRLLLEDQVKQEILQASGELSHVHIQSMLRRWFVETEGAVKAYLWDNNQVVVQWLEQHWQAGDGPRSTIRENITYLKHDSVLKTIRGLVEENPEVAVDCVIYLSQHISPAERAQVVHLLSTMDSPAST

| Structure (SMILES) | IC50 (fungal (fACC2); Table 2a) | IC50 (fungal (fACC2); Table 2b, additional results) | IC50 (human (hACC2); Table 2a) | IC50 (human (hACC2); Table 2b, additional results) | MIC (C. krusei; [1]) | MIC (C. krusei; [2]) | MIC (C. albicans; [3]) | MIC (C. albicans; [4]) | MIC (C. parapsilosis; [5]) | MIC (C. parapsilosis; [6]) | also measured |
| --- | --- | --- | --- | --- | --- | --- | --- | --- | --- | --- | --- |
| COCCCO[C@@H](Cn1c(=O)n(C(C)C(=O)NC(C)C)c(=O)c2c(C)c(-n3nccn3)sc21)c1cc(F)ccc1OC (stereo partly drawn) [Compound I-130] | 0.4 to 1 nM | 0.3 to 1 nM | 10 to 40 nM | 10 to 40 nM | 2.1 to 4 µg/mL (≈ 3.48 to 6.64 µM) | 1.01 to 2 µg/mL (≈ 1.68 to 3.32 µM) | 1.1 to 2 µg/mL (≈ 1.83 to 3.32 µM) | 2.01 to 4 µg/mL (≈ 3.34 to 6.64 µM) | 1.1 to 2 µg/mL (≈ 1.83 to 3.32 µM) | 1.01 to 2 µg/mL (≈ 1.68 to 3.32 µM) |  |
| COc1ccc(F)cc1[C@H](Cn1c(=O)n(C(C)C(=O)NC(C)C)c(=O)c2c(C)c(-n3nccn3)sc21)OCCO (stereo partly drawn) [Compound I-131] | 0.4 to 1 nM | 0.3 to 1 nM | 5 to 10 nM | 5 to 10 nM | 0.25 to 1 µg/mL (≈ 0.435 to 1.74 µM) | 1.01 to 2 µg/mL (≈ 1.76 to 3.48 µM) | 1.1 to 2 µg/mL (≈ 1.91 to 3.48 µM) | 2.01 to 4 µg/mL (≈ 3.5 to 6.96 µM) | 1.1 to 2 µg/mL (≈ 1.91 to 3.48 µM) | 1.01 to 2 µg/mL (≈ 1.76 to 3.48 µM) |  |
| COCCO[C@@H](Cn1c(=O)n(C(C)(C)C(=O)NC(C)C)c(=O)c2c(C)c(-n3nccn3)sc21)c1ccccc1OC [Compound I-133] | 1 to 5 nM | 1 to 5 nM | 5 to 10 nM | 5 to 10 nM | 1.1 to 2 µg/mL (≈ 1.88 to 3.42 µM) | 0.25 to 1 µg/mL (≈ 0.428 to 1.71 µM) | 1.1 to 2 µg/mL (≈ 1.88 to 3.42 µM) | 1.01 to 2 µg/mL (≈ 1.73 to 3.42 µM) | 2.1 to 4 µg/mL (≈ 3.59 to 6.84 µM) | 0.25 to 1 µg/mL (≈ 0.428 to 1.71 µM) |  |
| COCCO[C@@H](Cn1c(=O)n(C(C)(C)C(=O)NC2CCC2)c(=O)c2c(C)c(-n3nccn3)sc21)c1cc(F)ccc1OC [Compound I-134] | 1 to 5 nM | 1 to 5 nM | 5 to 10 nM | 5 to 10 nM |  |  |  |  |  |  | MIC, C. krusei ATCC 6258 (C. krusei; [7]): B (MIC of 1.1-2.0 μg/mL); MIC, C. krusei ATCC 6258 (C. krusei; [8]): B (MIC of 1.01-2.0 μg/mL); MIC, C. albicans ATCC 90028 (C. albicans; [7]): B (MIC of 1.1-2.0 μg/mL); MIC, C. albicans ATCC 90028 (C. albicans; [8]): D (MIC of >4.01 μg/mL); MIC, C. parapsilosis ATCC 22019 (C. parapsilosis; [7]): B (MIC of 1.1-2.0 μg/mL); MIC, C. parapsilosis ATCC 22019 (C. parapsilosis; [8]): A (MIC of 0.25-1.0 μg/mL) |
| COc1ccc(F)cc1[C@H](Cn1c(=O)n(C(C)(C)C(=O)NC(C)C)c(=O)c2c(C)c(-n3nccn3)sc21)OCCC(=O)O [Compound I-135, 3-[(1R)-1-(5-fluoro-2-methoxyphenyl)-2-(5-methyl-3-[1-methyl-1-[(propan-2-yl)carbamoyl]ethyl]-2,4-dioxo-6-(2H-1,2,3-triazol-2-yl)-1H,2H,3H,4H-thieno[2,3-d]pyrimidin-1-yl)ethoxy]propanoic acid] | 1 to 5 nM | 0.3 to 1 nM | 10 to 40 nM | 10 to 40 nM | 2.1 to 4 µg/mL (≈ 3.41 to 6.49 µM) | 0.25 to 1 µg/mL (≈ 0.405 to 1.62 µM) | 0.25 to 1 µg/mL (≈ 0.405 to 1.62 µM) | 0.25 to 1 µg/mL (≈ 0.405 to 1.62 µM) | 2.1 to 4 µg/mL (≈ 3.41 to 6.49 µM) | 0.25 to 1 µg/mL (≈ 0.405 to 1.62 µM) |  |
| COc1ccccc1[C@H](Cn1c(=O)n(C(C)(C)C(N)=O)c(=O)c2c(C)c(-n3nccn3)sc21)OCCC#N [Compound I-137, 2-[1-[(2R)-2-(2-cyanoethoxy)-2-(2-methoxyphenyl)ethyl]-5-methyl-2,4-dioxo-6-(2H-1,2,3-triazol-2-yl)-1H,2H,3H,4H-thieno[2,3-d]pyrimidin-3-yl]-2-methylpropanamide] | 1 to 5 nM | 1 to 5 nM | 1 to 5 nM | 1 to 5 nM | 2.1 to 4 µg/mL (≈ 3.91 to 7.44 µM) | 2.01 to 4 µg/mL (≈ 3.74 to 7.44 µM) | 2.1 to 4 µg/mL (≈ 3.91 to 7.44 µM) | 2.01 to 4 µg/mL (≈ 3.74 to 7.44 µM) | 2.1 to 4 µg/mL (≈ 3.91 to 7.44 µM) | 2.01 to 4 µg/mL (≈ 3.74 to 7.44 µM) |  |
| COc1ccc(F)cc1[C@H](Cn1c(=O)n(C(C)(C)C(=O)O)c(=O)c2c(C)c(-n3nccn3)sc21)OCCN1CC(C#N)C1 [Compound I-145] | 1 to 5 nM | 1 to 5 nM |  | 10 to 40 nM | 2.1 to 4 µg/mL (≈ 3.43 to 6.54 µM) | > 4.01 µg/mL | 2.1 to 4 µg/mL (≈ 3.43 to 6.54 µM) | > 4.01 µg/mL | 2.1 to 4 µg/mL (≈ 3.43 to 6.54 µM) | > 4.01 µg/mL |  |
| COc1ccc(F)cc1[C@H](Cn1c(=O)n(C(C)(C)C(=O)NC(C)C)c(=O)c2c(C)c(-n3nccn3)sc21)OCCN1CC(C#N)C1 [Compound I-146] | 1 to 5 nM | 1 to 5 nM |  | > 40 nM |  |  |  |  |  |  | MIC (C. krusei; read-out: MIC, C. krusei ATCC 6258, Table 3a, 3 replicates, MIC recorded at 48 h): 2.1 to 4 µg/mL (≈ 3.22 to 6.13 µM); MIC (C. krusei; read-out: MIC, C. krusei ATCC 6258, Table 3b (additional results), 3 replicates, MIC recorded at 48 h): 0.25 to 1 µg/mL (≈ 0.383 to 1.53 µM); MIC (C. albicans; read-out: MIC, C. albicans ATCC 90028, Table 3a, 3 replicates, MIC recorded at 48 h): 2.1 to 4 µg/mL (≈ 3.22 to 6.13 µM); MIC (C. albicans; read-out: MIC, C. albicans ATCC 90028, Table 3b (additional results), 3 replicates, MIC recorded at 48 h): 1.01 to 2 µg/mL (≈ 1.55 to 3.06 µM); MIC (C. parapsilosis; read-out: MIC, C. parapsilosis ATCC 22019, Table 3a, 3 replicates, MIC recorded at 48 h): 2.1 to 4 µg/mL (≈ 3.22 to 6.13 µM); MIC (C. parapsilosis; read-out: MIC, C. parapsilosis ATCC 22019, Table 3b (additional results), 3 replicates, MIC recorded at 48 h): 0.25 to 1 µg/mL (≈ 0.383 to 1.53 µM) |

Reference: patent publication US10800791B2, “Triazole ACC inhibitors and uses thereof” (Gilead Apollo, LLC, priority 2015, dated 2020)
